Where two headings read alike, the source gives them in different places.
What was measured:
[1] = test system: Key Grass and Sedge Weeds as well as Grass Crops; experiment: Post-emergent Test II herbicidal activity (Table 6); type: in vivo; settings: post-emergence, 336 h; for pest or weed control at 70 g/ha: application rate 70 g ai/ha; for pest or weed control at 140 g/ha: application rate 140 g ai/ha
How it was run: (§1)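 Foliar application at 187 L/ha to greenhouse-grown seedlings (first or second true leaf); subirrigation thereafter. Visual 0–100% injury at 14 d relative to untreated plants.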

[2] = test system: Key Broadleaf Weed and Crop Species; experiment: Post-emergent Test II herbicidal activity (Table 5); type: in vivo; settings: post-emergence, 336 h, post-emergent, 14 days after application; for pest or weed control at 70 g/ha: 70 g ai/ha; for pest or weed control at 140 g/ha: 140 g ai/ha
How it was run: as §1

[3] = Triticum aestivum, TRZSS (wheat), read-out: Visual Growth Reduction (%) 14 Days After Application, TRZSS
[4] = CYPES: yellow nutsedge (Cyperus esculentus), read-out: Visual Growth Reduction (%) 14 Days After Application, CYPES
[5] = DIGSA: crabgrass (Digitaria sanguinalis), read-out: Visual Growth Reduction (%) 14 Days After Application, DIGSA
[6] = ECHCG: barnyardgrass (Echinochloa crus-galli), read-out: Visual Growth Reduction (%) 14 Days After Application, ECHCG
[7] = ORYSA: rice (Oryza sativa), read-out: Visual Growth Reduction (%) 14 Days After Application, ORYSA
[8] = SETFA: giant foxtail (Setaria faberi), read-out: Visual Growth Reduction (%) 14 Days After Application, SETFA
[9] = SORVU: grain sorghum (Sorghum vulgare), read-out: Visual Growth Reduction (%) 14 Days After Application, SORVU
[10] = ZEAMX: maize, corn (Zea mays), read-out: Visual Growth Reduction (%) 14 Days After Application, ZEAMX
[11] = ABUTH: velvetleaf (Abutilon theophrasti), read-out: Visual Growth Reduction (%) 14 Days After Application ABUTH
[12] = AMARE: redroot pigweed (Amaranthus retroflexus), read-out: Visual Growth Reduction (%) 14 Days After Application AMARE
[13] = BRSNN: oilseed-rape, canola (Brassica napus), read-out: Visual Growth Reduction (%) 14 Days After Application BRSNN
[14] = CHEAL: lambsquarters (Chenopodium album), read-out: Visual Growth Reduction (%) 14 Days After Application CHEAL
[15] = EPHHL: wild poinsettia (Euphorbia heterophylla), read-out: Visual Growth Reduction (%) 14 Days After Application EPHHL
[16] = HELAN: sunflower (Helianthus annuus), read-out: Visual Growth Reduction (%) 14 Days After Application HELAN
[17] = VIOTR: wild pansy (Viola tricolor), read-out: Visual Growth Reduction (%) 14 Days After Application VIOTR

Nc1cc(-c2ccc(Br)c(F)c2)nc(C(=O)O)c1Cl [Compound 110, 4-Amino-6-(4-bromo-3-fluorophenyl)-3-chloropicolinic acid]
0 to 29%: pest or weed control at 70 g/ha [1, 7] | pest or weed control at 140 g/ha [1, 7]
95 to 100%: pest or weed control at 70 g/ha [2, 11] | pest or weed control at 140 g/ha [2, 11] | pest or weed control at 70 g/ha [2, 12] | pest or weed control at 140 g/ha [2, 12] | pest or weed control at 70 g/ha [2, 13] | pest or weed control at 140 g/ha [2, 13] | pest or weed control at 70 g/ha [2, 14] | pest or weed control at 140 g/ha [2, 14] | pest or weed control at 70 g/ha [2, 15] | pest or weed control at 140 g/ha [2, 15] | pest or weed control at 70 g/ha [2, 16] | pest or weed control at 140 g/ha [2, 16]
75 to 84%: pest or weed control at 70 g/ha [1, 5] | pest or weed control at 140 g/ha [1, 5] | pest or weed control at 140 g/ha [1, 6]
45 to 59%: pest or weed control at 70 g/ha [1, 3] | pest or weed control at 140 g/ha [1, 3] | pest or weed control at 70 g/ha [1, 4] | pest or weed control at 140 g/ha [1, 4] | pest or weed control at 70 g/ha [1, 10] | pest or weed control at 70 g/ha [2, 17] | pest or weed control at 140 g/ha [2, 17]
85 to 94%: pest or weed control at 70 g/ha [1, 9] | pest or weed control at 140 g/ha [1, 9]
60 to 74%: pest or weed control at 70 g/ha [1, 6] | pest or weed control at 70 g/ha [1, 8] | pest or weed control at 140 g/ha [1, 8] | pest or weed control at 140 g/ha [1, 10]

— patent publication US9113629B2, “4-amino-6-(4-substituted-phenyl)-picolinates and 6-amino-2-(4-substituted-phenyl)-pyrimidine-4-carboxylates and their use as herbicides” (DOW AGROSCIENCES LLC, priority 2013, dated 2015)
